Key:
Type in all cases: functional
Settings in all cases: Homo sapiens
[1] = Percent inhibition of sickling of sickle red blood (SS) cells under 4% oxygen was evaluated at 2 mM concentration
[2] = Percent inhibition of sickling of sickle red blood (SS) cells under 4% oxygen was evaluated at 1 mM concentration
[3] = Percent inhibition of sickling of sickle red blood (SS) cells under 4% oxygen was evaluated at 5 mM concentration

| SMILES | inhibition at 2000 µM [1] | inhibition at 1000 µM [2] | inhibition at 5000 µM [3] |
| --- | --- | --- | --- |
| O=Cc1ccc(CO)o1 [AES-103] | 42% | 13% | 90% |
| O=Cc1ccco1 [FURFURAL] | 0% | 0% | 30% |
| COc1cc(C=O)ccc1O [VANILLIN] | – | – | 20% |
